From patent publication US6552080B1, “Fungicidal compounds having a fluorovinyl-or fluoropropenyl-oxyphenyloxime moiety and process for the preparation thereof” (Korea Research Institute of Chemical Technology, priority 1999, dated 2003)

Test system: Pyricularia oryzae Carvara KA301
Experiment: not given
Assay type: in vivo
Settings: Rice Blast; concentration 2 ppm

Row | Compound | RCV (Fungicidal Activities, C.V.) [%]
1 | CNC(=O)C(=NOC)c1ccccc1CON=Cc1cccc(OC(F)=Cc2ccc3c(c2)OCO3)c1 [Compound 39] | 93
2 | CNC(=O)/C(=N/OC)c1ccccc1CON=C(C)c1cccc(OC(F)=Cc2ccccc2)c1 [Compound 77] | 100
3 | CON=C(C(=O)OC)c1ccccc1CON=C(C)c1cccc(OC(F)=Cc2ccc(Cl)cc2)c1 [Compound 76] | 100
4 | CON=C(C(=O)OC)c1ccccc1CON=C(C)c1cccc(OC(F)=Cc2cccc(Cl)c2)c1 [Compound 75] | 100

Same assay, conditions: Rice Blast; concentration 10 ppm

Row | Compound | RCV (Fungicidal Activities, C.V.) [%]
5 | CNC(=O)/C(=N/OC)c1ccccc1CON=C(C)c1cccc(OC(F)=Cc2ccccc2)c1 [Compound 77] | 100

Same assay, conditions: Rice Blast; concentration 50 ppm

Row | Compound | RCV (Fungicidal Activities, C.V.) [%]
6 | COC=C(C(=O)OC)c1ccccc1CON=C(c1cccc(OC(F)=Cc2cccc(F)c2)c1)C(F)(F)F [Compound 90] | 76
7 | CNC(=O)C(=NOC)c1ccccc1CON=Cc1cccc(OC(F)=Cc2ccc3c(c2)OCO3)c1 [Compound 39] | 100
8 | COC=C(C(=O)OC)c1ccccc1CON=C(c1cccc(OC(F)=Cc2ccc(OC)cc2)c1)C(F)(F)F [Compound 89] | 80
9 | CNC(=O)/C(=N/OC)c1ccccc1CON=C(C)c1cccc(OC(F)=Cc2ccccc2)c1 [Compound 77] | 100
10 | CON=C(C(=O)OC)c1ccccc1CON=C(C)c1cccc(OC(F)=Cc2ccc(Cl)cc2)c1 [Compound 76] | 100
11 | CON=C(C(=O)OC)c1ccccc1CON=C(C)c1cccc(OC(F)=Cc2cccc(Cl)c2)c1 [Compound 75] | 100
12 | CON=C(C(=O)OC)c1ccccc1CON=Cc1cccc(OC(F)=Cc2ccc(OC)cc2)c1 [Compound 26] | 95

Test system: Botrytis cinerae
Experiment: Fungicidal activity against Cucumber Gray Mold Rot (CGM) disease
Assay type: in vivo
Settings: Cucumber Gray Mold Rot; concentration 2 ppm

Row | Compound | CGM (Fungicidal Activities, C.V.) [%]
13 | CNC(=O)/C(=N/OC)c1ccccc1CON=C(C)c1cccc(OC(F)=Cc2ccccc2)c1 [Compound 77] | 21

Same assay, conditions: Cucumber Gray Mold Rot; concentration 10 ppm

Row | Compound | CGM (Fungicidal Activities, C.V.) [%]
14 | CNC(=O)/C(=N/OC)c1ccccc1CON=C(C)c1cccc(OC(F)=Cc2ccccc2)c1 [Compound 77] | 36

Same assay, conditions: Cucumber Gray Mold Rot; concentration 50 ppm

Row | Compound | CGM (Fungicidal Activities, C.V.) [%]
15 | COC=C(C(=O)OC)c1ccccc1CON=C(c1cccc(OC(F)=Cc2cccc(F)c2)c1)C(F)(F)F [Compound 90] | 9
16 | CNC(=O)C(=NOC)c1ccccc1CON=Cc1cccc(OC(F)=Cc2ccc3c(c2)OCO3)c1 [Compound 39] | 0
17 | COC=C(C(=O)OC)c1ccccc1CON=C(c1cccc(OC(F)=Cc2ccc(OC)cc2)c1)C(F)(F)F [Compound 89] | 0
18 | CNC(=O)/C(=N/OC)c1ccccc1CON=C(C)c1cccc(OC(F)=Cc2ccccc2)c1 [Compound 77] | 85
19 | CON=C(C(=O)OC)c1ccccc1CON=C(C)c1cccc(OC(F)=Cc2ccc(Cl)cc2)c1 [Compound 76] | 62
20 | CON=C(C(=O)OC)c1ccccc1CON=C(C)c1cccc(OC(F)=Cc2cccc(Cl)c2)c1 [Compound 75] | 0
21 | CON=C(C(=O)OC)c1ccccc1CON=Cc1cccc(OC(F)=Cc2ccc(OC)cc2)c1 [Compound 26] | 77

Test system: Phytophthora infestans
Experiment: not given
Assay type: in vivo
Settings: Tomato Late Blight; concentration 2 ppm

Row | Compound | TLB (Fungicidal Activities, C.V.) [%]
22 | CNC(=O)/C(=N/OC)c1ccccc1CON=C(C)c1cccc(OC(F)=Cc2ccccc2)c1 [Compound 77] | 50
23 | CON=C(C(=O)OC)c1ccccc1CON=C(C)c1cccc(OC(F)=Cc2ccc(Cl)cc2)c1 [Compound 76] | 0
24 | CON=C(C(=O)OC)c1ccccc1CON=C(C)c1cccc(OC(F)=Cc2cccc(Cl)c2)c1 [Compound 75] | 0

Same assay, conditions: Tomato Late Blight; concentration 10 ppm

Row | Compound | TLB (Fungicidal Activities, C.V.) [%]
25 | CNC(=O)/C(=N/OC)c1ccccc1CON=C(C)c1cccc(OC(F)=Cc2ccccc2)c1 [Compound 77] | 88

Same assay, conditions: Tomato Late Blight; concentration 50 ppm

Row | Compound | TLB (Fungicidal Activities, C.V.) [%]
26 | COC=C(C(=O)OC)c1ccccc1CON=C(c1cccc(OC(F)=Cc2cccc(F)c2)c1)C(F)(F)F [Compound 90] | 27
27 | CNC(=O)C(=NOC)c1ccccc1CON=Cc1cccc(OC(F)=Cc2ccc3c(c2)OCO3)c1 [Compound 39] | 83
28 | COC=C(C(=O)OC)c1ccccc1CON=C(c1cccc(OC(F)=Cc2ccc(OC)cc2)c1)C(F)(F)F [Compound 89] | 12
29 | CNC(=O)/C(=N/OC)c1ccccc1CON=C(C)c1cccc(OC(F)=Cc2ccccc2)c1 [Compound 77] | 80
30 | CON=C(C(=O)OC)c1ccccc1CON=C(C)c1cccc(OC(F)=Cc2ccc(Cl)cc2)c1 [Compound 76] | 0
31 | CON=C(C(=O)OC)c1ccccc1CON=C(C)c1cccc(OC(F)=Cc2cccc(Cl)c2)c1 [Compound 75] | 66
32 | CON=C(C(=O)OC)c1ccccc1CON=Cc1cccc(OC(F)=Cc2ccc(OC)cc2)c1 [Compound 26] | 90

Test system: Puccinia recondita
Experiment: Fungicidal activity against Wheat Leaf Rust (WLR) disease
Assay type: in vivo
Settings: Wheat Leaf Rust; concentration 2 ppm

Row | Compound | WLR (Fungicidal Activities, C.V.) [%]
33 | CNC(=O)C(=NOC)c1ccccc1CON=Cc1cccc(OC(F)=Cc2ccc3c(c2)OCO3)c1 [Compound 39] | 0
34 | CNC(=O)/C(=N/OC)c1ccccc1CON=C(C)c1cccc(OC(F)=Cc2ccccc2)c1 [Compound 77] | 100
35 | CON=C(C(=O)OC)c1ccccc1CON=C(C)c1cccc(OC(F)=Cc2ccc(Cl)cc2)c1 [Compound 76] | 100
36 | CON=C(C(=O)OC)c1ccccc1CON=C(C)c1cccc(OC(F)=Cc2cccc(Cl)c2)c1 [Compound 75] | 98

Same assay, conditions: Wheat Leaf Rust; concentration 10 ppm

Row | Compound | WLR (Fungicidal Activities, C.V.) [%]
37 | COC=C(C(=O)OC)c1ccccc1CON=C(c1cccc(OC(F)=Cc2ccc(OC)cc2)c1)C(F)(F)F [Compound 89] | 70
38 | CNC(=O)/C(=N/OC)c1ccccc1CON=C(C)c1cccc(OC(F)=Cc2ccccc2)c1 [Compound 77] | 100

Same assay, conditions: Wheat Leaf Rust; concentration 50 ppm

Row | Compound | WLR (Fungicidal Activities, C.V.) [%]
39 | COC=C(C(=O)OC)c1ccccc1CON=C(c1cccc(OC(F)=Cc2cccc(F)c2)c1)C(F)(F)F [Compound 90] | 86
40 | CNC(=O)C(=NOC)c1ccccc1CON=Cc1cccc(OC(F)=Cc2ccc3c(c2)OCO3)c1 [Compound 39] | 100
41 | COC=C(C(=O)OC)c1ccccc1CON=C(c1cccc(OC(F)=Cc2ccc(OC)cc2)c1)C(F)(F)F [Compound 89] | 96
42 | CNC(=O)/C(=N/OC)c1ccccc1CON=C(C)c1cccc(OC(F)=Cc2ccccc2)c1 [Compound 77] | 100
43 | CON=C(C(=O)OC)c1ccccc1CON=C(C)c1cccc(OC(F)=Cc2ccc(Cl)cc2)c1 [Compound 76] | 100
44 | CON=C(C(=O)OC)c1ccccc1CON=C(C)c1cccc(OC(F)=Cc2cccc(Cl)c2)c1 [Compound 75] | 100
45 | CON=C(C(=O)OC)c1ccccc1CON=Cc1cccc(OC(F)=Cc2ccc(OC)cc2)c1 [Compound 26] | 93

Test system: Erysiphae graminis
Experiment: Fungicidal activity against Barley Powdery Mildew (BPM) disease
Assay type: in vivo
Settings: Barley Powdery Mildew; concentration 2 ppm

Row | Compound | BPM (Fungicidal Activities, C.V.) [%]
46 | CNC(=O)C(=NOC)c1ccccc1CON=Cc1cccc(OC(F)=Cc2ccc3c(c2)OCO3)c1 [Compound 39] | 0
47 | CNC(=O)/C(=N/OC)c1ccccc1CON=C(C)c1cccc(OC(F)=Cc2ccccc2)c1 [Compound 77] | 100
48 | CON=C(C(=O)OC)c1ccccc1CON=C(C)c1cccc(OC(F)=Cc2ccc(Cl)cc2)c1 [Compound 76] | 100
49 | CON=C(C(=O)OC)c1ccccc1CON=C(C)c1cccc(OC(F)=Cc2cccc(Cl)c2)c1 [Compound 75] | 100

Same assay, conditions: Barley Powdery Mildew; concentration 10 ppm

Row | Compound | BPM (Fungicidal Activities, C.V.) [%]
50 | COC=C(C(=O)OC)c1ccccc1CON=C(c1cccc(OC(F)=Cc2cccc(F)c2)c1)C(F)(F)F [Compound 90] | 97
51 | COC=C(C(=O)OC)c1ccccc1CON=C(c1cccc(OC(F)=Cc2ccc(OC)cc2)c1)C(F)(F)F [Compound 89] | 99
52 | CNC(=O)/C(=N/OC)c1ccccc1CON=C(C)c1cccc(OC(F)=Cc2ccccc2)c1 [Compound 77] | 100

Same assay, conditions: Barley Powdery Mildew; concentration 50 ppm

Row | Compound | BPM (Fungicidal Activities, C.V.) [%]
53 | COC=C(C(=O)OC)c1ccccc1CON=C(c1cccc(OC(F)=Cc2cccc(F)c2)c1)C(F)(F)F [Compound 90] | 99
54 | CNC(=O)C(=NOC)c1ccccc1CON=Cc1cccc(OC(F)=Cc2ccc3c(c2)OCO3)c1 [Compound 39] | 100
55 | COC=C(C(=O)OC)c1ccccc1CON=C(c1cccc(OC(F)=Cc2ccc(OC)cc2)c1)C(F)(F)F [Compound 89] | 100
56 | CNC(=O)/C(=N/OC)c1ccccc1CON=C(C)c1cccc(OC(F)=Cc2ccccc2)c1 [Compound 77] | 100
57 | CON=C(C(=O)OC)c1ccccc1CON=C(C)c1cccc(OC(F)=Cc2ccc(Cl)cc2)c1 [Compound 76] | 100
58 | CON=C(C(=O)OC)c1ccccc1CON=C(C)c1cccc(OC(F)=Cc2cccc(Cl)c2)c1 [Compound 75] | 100
59 | CON=C(C(=O)OC)c1ccccc1CON=Cc1cccc(OC(F)=Cc2ccc(OC)cc2)c1 [Compound 26] | 100

Test system: Rhizoctonia solani AG-1
Experiment: Fungicidal activity against Rice Sheath Blight (RSB) disease
Settings: Rice Sheath Blight; concentration 2 ppm
Procedure: To examine fungicidal activity of the compounds of the present invention, each of the compounds listed in Table 3 and 4 was dissolved in 10% acetone to a concentration of 250 ppm, and Tween-20 was added thereto to a concentration of 250 or 500 ppm. 50 ml of the resulting solution was sprayed on leaves of a host plant. The plant was kept at room temperature for 24 hours to let the solvent evaporate, and then, a pathogenic fungus was inoculated thereonto. The plant was held in a humidity chamber for 24 hours, transferred to an plant growth room kept at 20 to 27° C. and a relative humidity of 60 to 80% and kept to induce disease. […] This procedure was repeated twice for each test. 10% Acetone solution containing 250 ppm of Tween-20 was used as a control.
The fungicidal activity of the compound of the present invention is repressed by a control value (C.V.) calculated as; [formula]
Rhizoctonia solani AG-1 was cultured on a PDA medium (potato 200 g, dextrose 20 g, agar 20 g and distilled water 1 ? for 3 days and the agar disc(diameter 0.6 cm) was inoculated and cultured on sterilized wheat bran medium in a 1 L bottle at 26 to 28° C. for 7 days. A mycelial mass was ground using a homogenizer, inoculated uniformly on soil of a pot wherein a Nakdong rice plant having 2 or 3 leaves and an height of 5 cm grew, and kept in humidity polyvinyl chamber for 5 days to induce RSB. L.A. on a leaf sheath was measured to calculate an C.V.

Row | Compound | RSB (Fungicidal Activities, C.V.) [%]
60 | CNC(=O)/C(=N/OC)c1ccccc1CON=C(C)c1cccc(OC(F)=Cc2ccccc2)c1 [Compound 77] | 40
61 | CON=C(C(=O)OC)c1ccccc1CON=C(C)c1cccc(OC(F)=Cc2ccc(Cl)cc2)c1 [Compound 76] | 35
62 | CON=C(C(=O)OC)c1ccccc1CON=C(C)c1cccc(OC(F)=Cc2cccc(Cl)c2)c1 [Compound 75] | 25

Same assay, conditions: Rice Sheath Blight; concentration 10 ppm

Row | Compound | RSB (Fungicidal Activities, C.V.) [%]
63 | CNC(=O)/C(=N/OC)c1ccccc1CON=C(C)c1cccc(OC(F)=Cc2ccccc2)c1 [Compound 77] | 57

Same assay, conditions: Rice Sheath Blight; concentration 50 ppm

Row | Compound | RSB (Fungicidal Activities, C.V.) [%]
64 | COC=C(C(=O)OC)c1ccccc1CON=C(c1cccc(OC(F)=Cc2cccc(F)c2)c1)C(F)(F)F [Compound 90] | 35
65 | CNC(=O)C(=NOC)c1ccccc1CON=Cc1cccc(OC(F)=Cc2ccc3c(c2)OCO3)c1 [Compound 39] | 58
66 | COC=C(C(=O)OC)c1ccccc1CON=C(c1cccc(OC(F)=Cc2ccc(OC)cc2)c1)C(F)(F)F [Compound 89] | 50
67 | CNC(=O)/C(=N/OC)c1ccccc1CON=C(C)c1cccc(OC(F)=Cc2ccccc2)c1 [Compound 77] | 100
68 | CON=C(C(=O)OC)c1ccccc1CON=C(C)c1cccc(OC(F)=Cc2ccc(Cl)cc2)c1 [Compound 76] | 100
69 | CON=C(C(=O)OC)c1ccccc1CON=C(C)c1cccc(OC(F)=Cc2cccc(Cl)c2)c1 [Compound 75] | 100
70 | CON=C(C(=O)OC)c1ccccc1CON=Cc1cccc(OC(F)=Cc2ccc(OC)cc2)c1 [Compound 26] | 77
